Source: ChEMBL document CHEMBL4619749, “Triazoxins: Novel nucleosides with anti-Giardia activity” (Bioorg Med Chem Lett, 2020)

Legend:
Assay type in all cases: functional, organism-based
Settings in all cases: Giardia duodenalis
Giardia intestinalis [1] = test: Antimicrobial activity against Giardia lamblia GS/M assessed as reduction in trophozoites formation
Giardia intestinalis [2] = test: Antimicrobial activity against Giardia lamblia assemblage A WB C6 ATCC 30957 cyst
Giardia intestinalis [3] = test: Antimicrobial activity against Giardia lamblia assemblage A WB C6 ATCC 30957 trophozoites

EC50 (Giardia intestinalis [1]) | IC50 (Giardia intestinalis [2]) | IC50 (Giardia intestinalis [3]) | Structure (SMILES)
– | > 50 µM | 47 µM | CC1(C)O[C@@H]2[C@H](O1)[C@@H](Cn1cc(CCCCc3cn(C[C@H]4O[C@@H](n5ccc(=O)[nH]c5=O)[C@@H]5OC(C)(C)O[C@@H]54)nn3)nn1)O[C@H]2n1ccc(=O)[nH]c1=O
– | > 50 µM | 47 µM | O=c1ccn([C@@H]2O[C@H](Cn3cc(C#CC#Cc4cn(C[C@H]5O[C@@H](n6ccc(=O)[nH]c6=O)[C@H](O)[C@@H]5O)nn4)nn3)[C@@H](O)[C@H]2O)c(=O)[nH]1

Second part, the molecule before the results:

Structure (SMILES) | EC50 (Giardia intestinalis [1]) | IC50 (Giardia intestinalis [2]) | IC50 (Giardia intestinalis [3])
Cc1ncc([N+](=O)[O-])n1CCO [METRONIDAZOLE] | 5.2 µM | – | –
COc1ccc(Cn2cc(C#Cc3cn(C[C@H]4O[C@@H](n5ccc(=O)n(Cc6ccc(OC)cc6)c5=O)[C@@H]5OC(C)(C)O[C@@H]54)nn3)c(=O)n(Cc3ccc(OC)cc3)c2=O)cc1 | – | 5 µM | 36 µM
O=c1ccn([C@@H]2O[C@H](Cn3cc(C#Cc4c[nH]c(=O)[nH]c4=O)nn3)[C@@H](O)[C@H]2O)c(=O)[nH]1 | – | 20 µM | 36 µM
CC1(C)O[C@@H]2[C@H](O1)[C@@H](Cn1cc(C#Cc3c[nH]c(=O)[nH]c3=O)nn1)O[C@H]2n1ccc(=O)[nH]c1=O | – | > 50 µM | 5 µM
